According to publication PMC9894226 (Proceedings of the National Academy of Sciences of the …, 2022):
Non-standard residues stand in square brackets, D forms with d. Residues, ends and D or L forms follow the SMILES beside them. Nle = CCCC[C@H](N)C(=O)O

Tests used:
[1] = pH 7.4; ref [67]; cited from earlier work
C. elegans CL2355 = experiment: Chemotaxis assay in transgenic C. elegans; assay type: in vivo, Caenorhabditis elegans; details: fed 0.5, 5 and 50 μM; untreated CL2355 0.18 ± 0.01, CL2122 0.29 ± 0.01
5xFAD mice = experiment: PET/CT imaging in 5xFAD mice; assay type: in vivo, mouse; details: 6-mo-old 5xFAD mice, 1 h post injection

Row | Compound | Chemotaxis index (CI) of CL2355 mutants (C. elegans CL2355) | also measured
1 | O=C(O)CN1CCN(CC(=O)O)CCN(CC(=O)O)CC1 [NOTA, 2,2′,2”-(1,4,7-triazacyclononane-1,4,7-triyl)triacetic acid] | – | Thermodynamic stability constant of Cu^2+ complex (log KML) [1]: 23.33
2 | CCCC[C@@H]1NC(=O)[C@@H](CC(C)C)NC(=O)[C@H](CCCCN)NC(=O)[C@@H](CO)NC(=O)[C@H](Cc2c[nH]cn2)NC(=O)[C@@H](C)NC1=O [[w4a]-1, c-(D-Leu-Nle-D-Ala-His-D-Ser-Lys)] (cyclo(H[dS]K[dL][Nle][dA])) | significantly less protective than peptide 1 | –
3 | [11CH3]Nc1ccc(-c2nc3ccc(O)cc3s2)cc1 [^11C-PIB, ^11C-Pittsburgh compound B] | – | Hippocampal uptake (PET) (5xFAD mice): 1.038 ± 0.028 %ID/g
4 | H-[dL][Nle][dW]H[dS]K-OH [Lin-1] | significantly less protective than peptide 1 | –
